Like-named read-outs stand apart in the source and are kept apart here.
Experiments:
Type in all cases: cell-based
human IL-6 = assay: Inhibition of IL-6 production by stimulated human peripheral blood leukocytes in vitro (ELISA); conditions: Homo sapiens, Leukocyte, PBL, read-out: Percentage of inhibition of IL-6 production; for inhibition at 10 µM: compound 10 μM; for inhibition at 50 µM: compound 50 μM
Procedure: (§1) Substances, used in in vitro experiments, were dissolved in dimethyl sulfoxide (DMSO) (Kemika, Croatia) at concentrations of 50 mM and 10 mM and were further diluted to the final concentrations of […] in 1 mL Dulbecco's modified Eagle medium (DMEM) supplemented with 1% heat inactivated fetal bovine serum (FBS), 1% glutamax, 50 U/ml penicillin, 50 μg/ml streptomycin and 2.5 μg/mL Fungizone (amphotericin B). Media and all media supplements were purchased from Gibco, Australia, except FBS that was from Sigma, USA.
(§2) Peripheral blood leukocytes (PBL) were obtained from venous blood of healthy volunteers by sedimentation on 2% dextran T-500 (Amersham Biosciences, USA) and subsequent centrifugations of leukocyte-rich plasma.
(§3) Peripheral blood leukocytes (PBL), isolated as described above, were seeded in a 48-well plate at a concentration of 3-5×10^6 cell per well in culture medium consisting of RPMI 1640 medium (Institute of Immunology, Croatia) supplemented with 10% heat-inactivated fetal calf serum (FCS, Biowhittaker, USA), 100 U/ml penicillin (Gibco, Australia), 100 μg/ml streptomycin (Gibco, Australia) and 2 mM L-glutamine (Gibco, Australia), and preincubated with the tested compounds for 2 h at 37° C., in an atmosphere of 5% CO2, and 90% humidity. Afterwards, stimuli (Sigma, USA) were added to a final concentration of 2 μg/mL lipopolysaccharide (LPS), 1 μg/mL phorbol 12-myristate 13-acetate (PMA) or 120 μg/mL zymosan. Samples were incubated overnight under conditions described above. At the end of incubation supernatants were transferred to eppendorf tubes and centrifuged for 10 min at 1500 g. Concentrations of human TNF-α, IL-1β, IL-6 and IL-8 were determined in cell supernatants by sandwich ELISA, using capture and detection antibodies (R&D, USA) according to manufacturer's recommendations.
(§4) Inhibition (as percentage) was calculated using the following formula: % inhibition=(1−concentration of cytokines in sample/concentration of cytokines in positive control)×100 where “positive control” refers to stimulated samples not treated with substances.

human TNF-α = assay: Inhibition of TNF-α production by stimulated human peripheral blood leukocytes in vitro (ELISA); conditions: Homo sapiens, Leukocyte, PBL, read-out: Percentage of inhibition of TNF-α production; for inhibition at 10 µM: compound 10 μM; for inhibition at 50 µM: compound 50 μM
Procedure: as §1, §2, §3, §4

human IL-8 = assay: Inhibition of IL-8 production by stimulated human peripheral blood leukocytes in vitro (ELISA); conditions: Homo sapiens, Leukocyte, PBL, read-out: Percentage of inhibition of IL-8 production; for inhibition at 10 µM: compound 10 μM; for inhibition at 50 µM: compound 50 μM
Procedure: as §1, §2, §3, §4

Hep G2 = conditions: human, 24 h
Procedure: (§5) Anti-inflammatory activity of compounds, i.e. observed inhibition of cytokine production and inhibition of proliferation in vitro, is not a consequence of their cytotoxicity.
(§6) Measurement of the succinate dehydrogenase activity in living cells was performed in order to assess the cytotoxicity of compounds of the invention. Cells were cultured for 24 hours in RPMI medium as described above at 37° C., in the presence of the tested compounds at concentrations of 50 μM and 12.5 μM. Afterwards, MTT [3-(4,5-dimethylthiazole-2-yl)-2,5-diphenyl tetrazolium bromide] (Promega, USA) as detection reagent was added and incubated for 0.5-2 hours. The amount of produced MTT-Formazan was determined spectrophotometrically at 490 nm (Mosmann, J. Immunol. Methods, 1983, 65: 55-63).
(§7) Percentage of viable cells was calculated using the following formula: % viable cells=[…]

THP-1 = conditions: human, 24 h
Procedure: as §5, §6, §7

A549 = conditions: human, 24 h
Procedure: as §5, §6, §7

human IL-1β = assay: Inhibition of IL-1β production by stimulated human peripheral blood leukocytes in vitro (ELISA); conditions: Homo sapiens, Leukocyte, PBL, read-out: Percentage of inhibition of IL-1β production; for inhibition at 10 µM: compound 10 μM; for inhibition at 50 µM: compound 50 μM
Procedure: as §1, §2, §3, §4

| Compound | inhibition at 10 µM (human IL-6; LPS stimulation) | inhibition at 50 µM (human IL-6; LPS stimulation) | inhibition at 10 µM (human IL-6; PMA stimulation) | inhibition at 50 µM (human IL-6; PMA stimulation) | inhibition at 10 µM (human IL-6; zymosan stimulation) | inhibition at 50 µM (human IL-6; zymosan stimulation) | inhibition at 10 µM (human TNF-α; LPS stimulation) | inhibition at 50 µM (human TNF-α; LPS stimulation) | inhibition at 10 µM (human TNF-α; PMA stimulation) | inhibition at 50 µM (human TNF-α; PMA stimulation) | inhibition at 10 µM (human TNF-α; zymosan stimulation) | inhibition at 50 µM (human TNF-α; zymosan stimulation) | inhibition at 10 µM (human IL-8; LPS stimulation) | inhibition at 50 µM (human IL-8; LPS stimulation) | inhibition at 10 µM (human IL-8; PMA stimulation) | inhibition at 50 µM (human IL-8; PMA stimulation) | inhibition at 10 µM (human IL-8; zymosan stimulation) | inhibition at 50 µM (human IL-8; zymosan stimulation) | Percentage of viable cells after treatment (Hep G2; 12.5 μM) | Percentage of viable cells after treatment (Hep G2; 50 μM) | also measured |
| --- | --- | --- | --- | --- | --- | --- | --- | --- | --- | --- | --- | --- | --- | --- | --- | --- | --- | --- | --- | --- | --- |
| CC[C@H]1OC(=O)[C@H](C)[C@@H](OC(=O)CCN(CC)CC)[C@H](C)[C@@H](O[C@@H]2O[C@H](C)C[C@H](N(C)C)C2O)[C@](C)(O)C[C@@H](C)CN(C)[C@H](C)[C@@H](O)[C@]1(C)O (stereo in doubt) [Example 12, 3-O-(3-Diethylamino-propionyl)-3-O-decladinosyl-azithromycin] | 9% | 19% | 43% | 93% | 0% | 96% | 22% | 0% | 30% | 75% | 33% | 0% | 16% | 51% | 31% | 27% | 20% | 52% | >95% | >90% | Percentage of viable cells after treatment (THP-1; 12.5 μM): >90%; Percentage of viable cells after treatment (THP-1; 50 μM): 100%; Percentage of viable cells after treatment (A549; 12.5 μM): >90%; Percentage of viable cells after treatment (A549; 50 μM): >90%; inhibition at 10 µM (human IL-1β; LPS stimulation): 50%; inhibition at 50 µM (human IL-1β; LPS stimulation): 71%; inhibition at 10 µM (human IL-1β; PMA stimulation): 54%; inhibition at 50 µM (human IL-1β; PMA stimulation): 92%; inhibition at 10 µM (human IL-1β; zymosan stimulation): 29%; inhibition at 50 µM (human IL-1β; zymosan stimulation): 72% |
| C=CC(=O)O[C@H]1[C@H](C)[C@@H](O[C@@H]2O[C@H](C)C[C@H](N(C)C)[C@H]2O)[C@](C)(OC)C[C@@H](C)C(=O)[C@H](C)[C@@H](O)[C@](C)(O)[C@@H](CC)OC(=O)[C@@H]1C [Example 4, 3-O-Propenoyl-3-O-decladinosyl-6-O-methyl-erythromycin A] | 37% | 100% | 96% | 100% | 55% | 100% | 0% | 100% | 69% | 100% | 0% | 100% | 29% | 100% | 55% | 90% | 10% | 100% | >85% | >95% | Percentage of viable cells after treatment (THP-1; 12.5 μM): 100%; Percentage of viable cells after treatment (THP-1; 50 μM): 100%; Percentage of viable cells after treatment (A549; 12.5 μM): >95%; Percentage of viable cells after treatment (A549; 50 μM): >95%; inhibition at 10 µM (human IL-1β; LPS stimulation): 75%; inhibition at 50 µM (human IL-1β; LPS stimulation): 100%; inhibition at 10 µM (human IL-1β; PMA stimulation): 97%; inhibition at 50 µM (human IL-1β; PMA stimulation): 100%; inhibition at 10 µM (human IL-1β; zymosan stimulation): 61%; inhibition at 50 µM (human IL-1β; zymosan stimulation): 100% |
| CC[C@H]1OC(=O)[C@H](C)[C@@H](OC(=O)CCN(CC)CC)[C@H](C)[C@@H](O[C@@H]2O[C@H](C)C[C@H](NC)[C@@H]2O)[C@](C)(OC)C[C@@H](C)C(=O)N[C@H](C)[C@@H](O)[C@]1(C)O [Example 10, 3-O-(3-Diethylamino-propionyl)-3-O-decladinosyl-3′-N-demethyl-6-O-methyl-9a-aza-9a-homoerythromycin A] | 35% | 92% | 69% | 92% | 40% | 100% | 6% | 65% | 68% | 78% | 10% | 75% | 13% | 77% | 23% | 76% | 6% | 82% | 100% | 100% | Percentage of viable cells after treatment (THP-1; 12.5 μM): 100%; Percentage of viable cells after treatment (THP-1; 50 μM): 100%; Percentage of viable cells after treatment (A549; 12.5 μM): >80%; Percentage of viable cells after treatment (A549; 50 μM): >90%; inhibition at 10 µM (human IL-1β; LPS stimulation): 70%; inhibition at 50 µM (human IL-1β; LPS stimulation): 88%; inhibition at 10 µM (human IL-1β; PMA stimulation): 80%; inhibition at 50 µM (human IL-1β; PMA stimulation): 94%; inhibition at 10 µM (human IL-1β; zymosan stimulation): 78%; inhibition at 50 µM (human IL-1β; zymosan stimulation): 100% |
